One data set has as its system Cerebellum. Description: Drug uptake in cerebellum of Wistar rat brain at 48.8 MBq, iv administered as bolus dose for 30 secs measured over 120 mins post injection by MicroPET image analysis. It counts as ADME, organism-based. As to conditions: in vivo; call rule not given here.
Data set [1] is described as follows: Drug uptake in cerebellum of rhesus monkey brain at 89 +/- 3 MBq, iv administered as bolus dose for 1 min measured over 90 mins post injection by MicroPET image analysis. It counts as ADME, organism-based, Macaca mulatta. As to conditions: in vivo.
A short description of data set [2]: Drug uptake in cortex of rhesus monkey brain at 89 +/- 3 MBq, iv administered as bolus dose for 1 min measured over 90 mins post injection by MicroPET image analysis. It counts as ADME, organism-based, Macaca mulatta. Conditions: in vivo.
Data set [3] can be described thus: Drug uptake in thalamus of rhesus monkey brain at 89 +/- 3 MBq, iv administered as bolus dose for 1 min measured over 90 mins post injection by MicroPET image analysis. It counts as ADME, organism-based, Macaca mulatta. As to conditions: in vivo.
Data set [4] deals with Striatum. Description: Drug uptake in striatum of rhesus monkey brain at 89 +/- 3 MBq, iv administered as bolus dose for 1 min measured over 90 mins post injection by MicroPET image analysis. It counts as ADME, organism-based, Macaca mulatta. Conditions: in vivo.
Data set [5] deals with Brain. Description: Drug uptake in brain of rhesus monkey at 89 +/- 3 MBq, iv administered as bolus dose for 1 min measured at 5 mins post wash out by MicroPET image analysis. It counts as ADME, organism-based, Macaca mulatta. Conditions: in vivo.
For data set [6], the system named is Brain. Description: Drug uptake in brain of Wistar rat at 48.8 MBq, iv administered as bolus dose for 30 secs measured at 3 mins post wash out by MicroPET image analysis. It counts as ADME, organism-based. As to conditions: in vivo, 0.05 h.
Another data set has as its system Thalamus. Description: Drug uptake in thalamus of Wistar rat brain at 48.8 MBq, iv administered as bolus dose for 30 secs measured over 120 mins post injection by MicroPET image analysis. It counts as ADME, organism-based. As to conditions: in vivo.
The test system of the next data set is Cortex. Description: Drug uptake in cortex of Wistar rat brain at 48.8 MBq, iv administered as bolus dose for 30 secs measured over 120 mins post injection by MicroPET image analysis. It counts as ADME, organism-based. Conditions: in vivo.
The subject of data set [7] is Striatum. Description: Drug uptake in striatum of Wistar rat brain at 48.8 MBq, iv administered as bolus dose for 30 secs measured over 120 mins post injection by MicroPET image analysis. Conditions: in vivo. It counts as ADME, organism-based.

This passage reports Drug uptake and SUV results from ChEMBL document CHEMBL3580650, “Synthesis and Initial in Vivo Studies with [(11)C]SB-216763: The First Radiolabeled Brain Penetrative Inhibitor of GSK-3” (ACS Med Chem Lett, 2015).

Structures are written as SMILES.

As for `[11CH3]n1cc(C2=C(c3ccc(Cl)cc3Cl)C(=O)NC2=O)c2ccccc21`, the Drug uptake entry (with Cerebellum; in data set [1]; in data set [2]; in data set [3]; in the data set on Striatum [4]; with Thalamus) was “Active” each time. Also, the Drug uptake result in the data set with Cortex and in the data set on Striatum [7] was “Active” in each case. The figures for the SUV with Brain [5] and with Brain [6] were 1.9 and 2.5, respectively.
